Results on five molecules are retold here after paper PMC10101151 (Bioorganic & medicinal chemistry letters, 2022).

Test [1] deals with 8 different MDR Gram-negative bacteria. Put plainly: colistin MIC across the panel of strains. Format: cell-based. The following applies: for Colistin MIC in the presence of compound, strains that contain the mcr genes: compound at 1 μg/mL.
A further test relates to P. aeruginosa AR-0239. The experiment in a line: colistin MIC in absence or presence of RMA. It is filed as cell-based. Conditions: for fold reduction of colistin MIC: compound at 1 μg/mL, AR-0239.
In the next test the test system is P. aeruginosa AR-0257. The experiment in a line: colistin MIC in absence or presence of RMA. Format: cell-based. Conditions: for fold reduction of colistin MIC: compound at 1 μg/mL, AR-0257.
In another test the test system is A. baumannii AR-0310. Put plainly: colistin MIC in absence or presence of RMA. Format: cell-based. Conditions: colistin alone.
Another test concerns K. pneumoniae AR-0497. Put plainly: colistin MIC in absence or presence of RMA. The following applies: colistin alone; mcr-1. Format: cell-based.
A further test deals with E. coli AR-0493. Put plainly: colistin MIC in absence or presence of RMA. It is filed as cell-based. Conditions: colistin alone; mcr-1.
The test system of another test is S. Typhimurium AR-0539. Put plainly: colistin MIC in absence or presence of RMA. Format: cell-based, Salmonella Typhimurium. Conditions: colistin alone; mcr-3.
A further test has as its system S. Typhimurium AR-0635. Put plainly: colistin MIC in absence or presence of RMA. The following applies: colistin alone; mcr-4. Format: cell-based, Salmonella Typhimurium.
The subject of another test is E. coli AR-0538. Put plainly: colistin MIC in absence or presence of RMA. It is filed as cell-based. Conditions: colistin alone; mcr-2.
The next test deals with mitochondria. The following applies: in vitro and in mice for 6p; cited from earlier work.

As for `Clc1cccc(Nc2nc3nonc3nc2Nc2cccc(Cl)c2)c1` [5l], in test [1], the “Colistin MIC in the presence of compound, strains that contain the mcr genes” value was 1 to 2 µg/mL. For the same molecule, the “fold reduction of colistin MIC” value in the test with P. aeruginosa AR-0239 and in the test with P. aeruginosa AR-0257 was 4 folds throughout.
Take `Clc1ccc(Nc2nc3nonc3nc2Nc2ccc(Cl)cc2)cc1` [5m]: the “Colistin MIC in the presence of compound, strains that contain the mcr genes” value in test [1] is 1 to 2 µg/mL. The “fold reduction of colistin MIC” value in the test on P. aeruginosa AR-0239 and in the test on P. aeruginosa AR-0257 was 4 folds throughout.
Consider Colistin, for which the “Colistin MIC, range over all strains” value in [1] (colistin alone, 8 strains) was in the range of 4 to 32 µg/mL. The “Colistin MIC” value in the test on A. baumannii AR-0310 turned out to be 32 µg/mL; in the test on K. pneumoniae AR-0497, 8 µg/mL; with E. coli AR-0493, 8 µg/mL; with S. Typhimurium AR-0539, 8 µg/mL; with S. Typhimurium AR-0635, 32 µg/mL; in the test on E. coli AR-0538, 8 µg/mL. In addition, the entries for the “Colistin MIC” value in the test with P. aeruginosa AR-0239 (colistin alone) and in the test with P. aeruginosa AR-0257 (colistin alone) were 4 µg/mL and 8 µg/mL, respectively.
Consider `FC(F)(F)Oc1ccc(Nc2nc3nonc3nc2Nc2ccc(OC(F)(F)F)cc2)cc1` [5p], for which the mitochondrial uncoupler activity entry in the test on mitochondria is recorded as “poor uncoupler”.
For the molecule `Oc1nc2nonc2nc1Nc1ccc(OC(F)(F)F)cc1` [6p], the mitochondrial uncoupler activity result with mitochondria is on record as “one of the most potent uncouplers”.
